system: Bacteria; experiment: Inhibition of recombinant IMP-1 (unknown origin) using fluorocillin as substrate at 10 uM incubated for 30 mins by fluorescence based assay; conditions: not given

SMILES	inhibition
N#CCNCc1cc([N+](=O)[O-])c2cccnc2c1O	91%
CCNCc1cc([N+](=O)[O-])c2cccnc2c1O	53%

Next, values leading:

inhibition	SMILES
38%	CN(CC#N)Cc1ccc2c([N+](=O)[O-])ccc(O)c2n1
47%	O=C(O)c1ccc2c([N+](=O)[O-])cc([N+](=O)[O-])c(O)c2n1

system: not listed separately; experiment: Inhibition of recombinant NDM-1 (unknown origin) using fluorocillin as substrate at 30 uM incubated for 30 mins by fluorescence based assay; conditions: Bacteria

SMILES	inhibition
N#CCNCc1cc([N+](=O)[O-])c2cccnc2c1O	98%
O=[N+]([O-])c1cc([N+](=O)[O-])c2cccnc2c1O	< 20%
O=C(O)c1cc([N+](=O)[O-])c2cccnc2c1O	< 20%
O=[N+]([O-])c1cc(O)c2ncccc2c1	95%
N#CCOc1ccc([N+](=O)[O-])c2cccnc12	< 20%
CCNCc1cc([N+](=O)[O-])c2cccnc2c1O	88%
Oc1ccc(C(F)(F)F)c2cccnc12	< 20%
Cc1cc(C)c2cccnc2c1O	< 20%
N#CC1(NC(=O)c2cc([N+](=O)[O-])c3cccnc3c2O)CC1	< 20%
Cc1ccc2c([N+](=O)[O-])cc([N+](=O)[O-])c(O)c2n1	< 20%
O=C(O)C[C@H](NCCN[C@@H](CC(=O)O)C(=O)O)C(=O)O	86%
O=[N+]([O-])c1ccc(O)c2ccccc12	< 20%

Second part, the molecule after the results:

inhibition	SMILES
76%	O=[N+]([O-])c1cc(CNCc2ccccc2)c(O)c2ncccc12
< 20%	N#CCN(Cc1ccccc1)C(=O)c1ccc2cccc(O)c2n1
< 20%	N#CCNC(=O)c1ccc2cccc(O)c2n1
< 20%	O=C(O)c1cc(O)c2ncccc2c1
60%	Oc1ccc(Cl)c2cccnc12
< 20%	CN(C)Cc1ccc2c([N+](=O)[O-])ccc(O)c2n1
< 20%	Nc1c(O)cc(S(=O)(=O)O)c2ccccc12
93%	CN(CC#N)Cc1ccc2c([N+](=O)[O-])ccc(O)c2n1
96%	O=C(O)c1ccc2c([N+](=O)[O-])cc([N+](=O)[O-])c(O)c2n1
< 20%	N#Cc1ccc2ccc([N+](=O)[O-])c(O)c2n1
< 20%	N#CCNC(=O)c1ccc2c([N+](=O)[O-])ccc(O)c2n1
68%	c1cnc2c(c1)ccc1cccnc12
< 20%	O=S(=O)(O)c1ccc(O)c2ccccc12

system: Bacteria; experiment: Inhibition of recombinant IMP-1 (unknown origin) using fluorocillin as substrate at 3 uM incubated for 30 mins by fluorescence based assay; conditions: not given

SMILES	inhibition
N#CCNCc1cc([N+](=O)[O-])c2cccnc2c1O	43%
CCNCc1cc([N+](=O)[O-])c2cccnc2c1O	< 20%

Continued, values first:

inhibition	SMILES
< 20%	CN(CC#N)Cc1ccc2c([N+](=O)[O-])ccc(O)c2n1
< 20%	O=C(O)c1ccc2c([N+](=O)[O-])cc([N+](=O)[O-])c(O)c2n1

system: Bacteria; experiment: Inhibition of recombinant VIM-1 (unknown origin) using fluorocillin as substrate at 30 uM incubated for 30 mins by fluorescence based assay; conditions: not given

SMILES	inhibition
N#CCNCc1cc([N+](=O)[O-])c2cccnc2c1O	99%
CCNCc1cc([N+](=O)[O-])c2cccnc2c1O	98%

Further lines, results first:

inhibition	SMILES
92%	CN(CC#N)Cc1ccc2c([N+](=O)[O-])ccc(O)c2n1
86%	O=C(O)c1ccc2c([N+](=O)[O-])cc([N+](=O)[O-])c(O)c2n1

system: Bacteria; experiment: Inhibition of recombinant VIM-1 (unknown origin) using fluorocillin as substrate at 10 uM incubated for 30 mins by fluorescence based assay; conditions: not given

SMILES	inhibition
N#CCNCc1cc([N+](=O)[O-])c2cccnc2c1O	99%
CCNCc1cc([N+](=O)[O-])c2cccnc2c1O	53%

More lines, now with the values ahead:

inhibition	SMILES
53%	CN(CC#N)Cc1ccc2c([N+](=O)[O-])ccc(O)c2n1
57%	O=C(O)c1ccc2c([N+](=O)[O-])cc([N+](=O)[O-])c(O)c2n1

system: not listed separately; experiment: Inhibition of recombinant NDM-1 (unknown origin) using fluorocillin as substrate at 3 uM incubated for 30 mins by fluorescence based assay; conditions: Bacteria

SMILES	inhibition
N#CCNCc1cc([N+](=O)[O-])c2cccnc2c1O	64%
O=[N+]([O-])c1cc([N+](=O)[O-])c2cccnc2c1O	< 20%
O=C(O)c1cc([N+](=O)[O-])c2cccnc2c1O	< 20%
O=[N+]([O-])c1cc(O)c2ncccc2c1	< 20%
N#CCOc1ccc([N+](=O)[O-])c2cccnc12	< 20%
CCNCc1cc([N+](=O)[O-])c2cccnc2c1O	< 20%
Oc1ccc(C(F)(F)F)c2cccnc12	13%
Cc1cc(C)c2cccnc2c1O	< 20%
N#CC1(NC(=O)c2cc([N+](=O)[O-])c3cccnc3c2O)CC1	< 20%
Cc1ccc2c([N+](=O)[O-])cc([N+](=O)[O-])c(O)c2n1	< 20%
O=C(O)C[C@H](NCCN[C@@H](CC(=O)O)C(=O)O)C(=O)O	84%
O=[N+]([O-])c1ccc(O)c2ccccc12	< 20%

More lines, now with the values ahead:

inhibition	SMILES
< 20%	O=[N+]([O-])c1cc(CNCc2ccccc2)c(O)c2ncccc12
< 20%	N#CCN(Cc1ccccc1)C(=O)c1ccc2cccc(O)c2n1
< 20%	N#CCNC(=O)c1ccc2cccc(O)c2n1
< 20%	O=C(O)c1cc(O)c2ncccc2c1
< 20%	Oc1ccc(Cl)c2cccnc12
< 20%	CN(C)Cc1ccc2c([N+](=O)[O-])ccc(O)c2n1
< 20%	Nc1c(O)cc(S(=O)(=O)O)c2ccccc12
< 20%	CN(CC#N)Cc1ccc2c([N+](=O)[O-])ccc(O)c2n1
< 20%	O=C(O)c1ccc2c([N+](=O)[O-])cc([N+](=O)[O-])c(O)c2n1
< 20%	N#Cc1ccc2ccc([N+](=O)[O-])c(O)c2n1
< 20%	N#CCNC(=O)c1ccc2c([N+](=O)[O-])ccc(O)c2n1
< 20%	c1cnc2c(c1)ccc1cccnc12
< 20%	O=S(=O)(O)c1ccc(O)c2ccccc12

system: Bacteria; experiment: Inhibition of recombinant VIM-1 (unknown origin) using fluorocillin as substrate at 3 uM incubated for 30 mins by fluorescence based assay; conditions: not given

SMILES	inhibition
N#CCNCc1cc([N+](=O)[O-])c2cccnc2c1O	95%
CCNCc1cc([N+](=O)[O-])c2cccnc2c1O	< 20%

The next lines start with the values.

inhibition	SMILES
23%	CN(CC#N)Cc1ccc2c([N+](=O)[O-])ccc(O)c2n1
34%	O=C(O)c1ccc2c([N+](=O)[O-])cc([N+](=O)[O-])c(O)c2n1

system: Bacteria; experiment: Inhibition of recombinant IMP-1 (unknown origin) using fluorocillin as substrate at 30 uM incubated for 30 mins by fluorescence based assay; conditions: not given

SMILES	inhibition
N#CCNCc1cc([N+](=O)[O-])c2cccnc2c1O	96%
CCNCc1cc([N+](=O)[O-])c2cccnc2c1O	92%

Second part, the molecule after the results:

inhibition	SMILES
78%	CN(CC#N)Cc1ccc2c([N+](=O)[O-])ccc(O)c2n1
91%	O=C(O)c1ccc2c([N+](=O)[O-])cc([N+](=O)[O-])c(O)c2n1

system: not listed separately; experiment: Inhibition of recombinant NDM-1 (unknown origin) using fluorocillin as substrate at 10 uM incubated for 30 mins by fluorescence based assay; conditions: Bacteria

SMILES	inhibition
N#CCNCc1cc([N+](=O)[O-])c2cccnc2c1O	89%
O=[N+]([O-])c1cc([N+](=O)[O-])c2cccnc2c1O	< 20%
O=C(O)c1cc([N+](=O)[O-])c2cccnc2c1O	< 20%
O=[N+]([O-])c1cc(O)c2ncccc2c1	< 20%
N#CCOc1ccc([N+](=O)[O-])c2cccnc12	< 20%
CCNCc1cc([N+](=O)[O-])c2cccnc2c1O	40%
Oc1ccc(C(F)(F)F)c2cccnc12	< 20%
Cc1cc(C)c2cccnc2c1O	< 20%
N#CC1(NC(=O)c2cc([N+](=O)[O-])c3cccnc3c2O)CC1	< 20%
Cc1ccc2c([N+](=O)[O-])cc([N+](=O)[O-])c(O)c2n1	< 20%
O=C(O)C[C@H](NCCN[C@@H](CC(=O)O)C(=O)O)C(=O)O	84%
O=[N+]([O-])c1ccc(O)c2ccccc12	< 20%

More lines, now with the values ahead:

inhibition	SMILES
23%	O=[N+]([O-])c1cc(CNCc2ccccc2)c(O)c2ncccc12
< 20%	N#CCN(Cc1ccccc1)C(=O)c1ccc2cccc(O)c2n1
< 20%	N#CCNC(=O)c1ccc2cccc(O)c2n1
< 20%	O=C(O)c1cc(O)c2ncccc2c1
< 20%	Oc1ccc(Cl)c2cccnc12
< 20%	CN(C)Cc1ccc2c([N+](=O)[O-])ccc(O)c2n1
< 20%	Nc1c(O)cc(S(=O)(=O)O)c2ccccc12
47%	CN(CC#N)Cc1ccc2c([N+](=O)[O-])ccc(O)c2n1
90%	O=C(O)c1ccc2c([N+](=O)[O-])cc([N+](=O)[O-])c(O)c2n1
< 20%	N#Cc1ccc2ccc([N+](=O)[O-])c(O)c2n1
< 20%	N#CCNC(=O)c1ccc2c([N+](=O)[O-])ccc(O)c2n1
< 20%	c1cnc2c(c1)ccc1cccnc12
< 20%	O=S(=O)(O)c1ccc(O)c2ccccc12

From ChEMBL document CHEMBL5046233, “Nitroxoline and its derivatives are potent inhibitors of metallo-β-lactamases” (Eur J Med Chem, 2022)
